PMC11855866 (International Journal of Molecular Sciences, 2025)
≈ marks a conversion by molar mass, not a printed value.

Legend:
[1] = Hemolysis (Drabkin's method); assay type: cell-based; conditions: human, washed erythrocyte (RBC) suspension, 40% hematocrit, pH 7.4, single drug, RT, dark, CTRL− 11.6%
Method: Blood samples were collected from healthy human volunteers into Vacutainer tubes containing 3% sodium citrate (BD Biosciences, Warsaw, Poland). Whole blood was centrifuged at 1500 rpm (RCF = 214 g) for 10 min in a CompactStar CS4 centrifuge (VWR) at RT to separate erythrocytes, which were washed twice with PBS (pH 7.4) and centrifuged at 1500 rpm for 5 min at RT after each wash. Hematocrit was measured to adjust the final RBC concentration in PBS (pH 7.4) to 40%. The drugs were then dissolved in the RBC suspension at the final concentrations outlined in Figure 8. RBCs incubated in dH2O were used as a positive control (100% hemolysis), while RBCs in PBS were used as the negative control. A blank sample of PBS without RBCs or drugs provided a baseline for absorbance measurements. Experimental samples, along with positive, negative, and vehicle (0.5% DMSO) controls, were incubated for 4 h at RT in the dark. After incubation, the samples were centrifuged at 1500 rpm for 5 min at RT, and the supernatant was collected to measure hemoglobin release using Drabkin’s method. Absorbance was measured at 540 nm with a Jenway 6305 UV/Vis spectrophotometer (Bibby Scientific, Staffordshire, UK). This study was conducted in triplicate. The percentage of hemolysis was calculated by comparing the absorbance at 540 nm (OD540) of the test sample with that of the positive control using the following formula:(2) % Hemolysis=OD540Test−OD540(Blank)/OD540Total Lysis−OD540(Blank)×100%

[2] = MTT cytotoxicity, range over the cell panel; assay type: cell-based; conditions: human; range over the tested cell lines; read-out: cytotoxicity (IC50 range over cell lines), our study
Method: HMEC-1, an immortalized human microvascular endothelial cell line, was used as a model for normal cells.
(§1) The cancer cell lines were cultured in Dulbecco’s Modified Eagle’s Medium (DMEM; Sigma-Aldrich) supplemented with 10% FBS and 1% penicillin/streptomycin mixture (10,000 U/mL penicillin and 10 mg/mL streptomycin; Sigma-Aldrich) at 37 °C in a humidified atmosphere with 5% CO2.
(§2) For the MTT assay, exponentially growing cells were seeded into 96-well plates at a density of 5 × 10³ cells per well. After 24 h of incubation, the medium was replaced with 100 µL of fresh medium containing the tested compounds. After 72 h of treatment, cell viability was assessed using the MTT assay as described earlier. […] IC50 values were calculated using GraphPad Prism 9 software (GraphPad Software).

[3] = set-up: method as in Figure S2 [39–71]; conditions: ref Figure S2 [39–71]; cited from earlier work
[4] = cited from earlier work
[5] = cited from earlier work; remark: listed apart in the source
CT26 colon cancer model = test system: CT26 colon cancer model; set-up: method as in PMID 36033393; conditions: GLIM 5 mg/kg every 2 days, i.p.; cited from earlier work
MC38 melanoma model = test system: MC38 melanoma model; set-up: method as in PMID 36033393; conditions: GLIM 5 mg/kg every 2 days, i.p.; cited from earlier work
MC38 model = test system: MC38 model; set-up: method as in PMID 36033393; conditions: GLIM 5 mg/kg every 2 days, i.p.; cited from earlier work
HMEC-1 cells = assay: MTT cytotoxicity / synergy assay, 72 h, HMEC-1; conditions: Homo sapiens, HMEC-1, 72 h, read-out: IC50 Value in Specific Cell Line, HMEC-1
Method: The synergistic effects of drug combinations were studied in various cancer cell lines, including MCF-7 (human breast cancer), A549 (human lung cancer), U-87 MG (human malignant glioma), HepG2 (human liver cancer), and HUH7 (human liver cancer). HMEC-1, an immortalized human microvascular endothelial cell line, was used as a model for normal cells. All cell lines were purchased from ATCC (Rockville, MD, USA).
as §1, §2

CCC1=C(C)CN(C(=O)NCCc2ccc(S(=O)(=O)NC(=O)N[C@H]3CC[C@H](C)CC3)cc2)C1=O [GLIM, Glimepiride]
hemolysis at 4 h [1]: 11.2 to 11.9% | IC50 at 72 h [2]: 135 to 473 µM | solubility [3]: 12.2 µM (≈ 5.99 µg/mL) | logP [4]: 3.81 | protein-bound in plasma [5]: 99.4% | increase in CD8+ T cell infiltration (CT26 colon cancer model): about 100% | reduction of tumor mass (CT26 colon cancer model): 45% | reduction of tumor mass (MC38 melanoma model): 57% | increase in CD8+ T cell numbers (MC38 model): < 10% | CC50 (HMEC-1 cells): 136 ± 5.1 µM
